According to ChEMBL document CHEMBL3808275, “Design, synthesis and SARs of novel salicylanilides as potent inhibitors of RANKL-induced osteoclastogenesis and bone resorption” (Eur J Med Chem, 2016):
The source made the active and inactive calls. No cut-off for these calls is given here.

Experiments:
[1] = Cytotoxicity against mouse RAW264.7 cells assessed as survival rate at 2.5 uM after 24 hrs by MTT assay; type: cell-based; settings: read-out: Survival
[2] = Cytotoxicity against mouse RAW264.7 cells assessed as reduction in cell viability after 24 hrs by MTT assay; type: cell-based
RAW264.7 [3] = experiment: Cytotoxicity against mouse RAW264.7 cells assessed as reduction in cell viability at 5 uM after 24 hrs by MTT assay; type: cell-based; settings: raw264.7, 24 h
RAW264.7 [4] = experiment: Inhibition of RANKL-induced osteoclast differentiation in mouse RAW264.7 cells assessed as reduction in TRAP-positive multinucleated cells level incubated with compound in presence of RANKL for 4 days by TRAP staining based light microscopic analysis relative to RANKL alone; type: functional, cell-based; settings: RAW264.7, 96 h
RAW264.7 [5] = experiment: Inhibition of RANKL-induced osteoclast differentiation in mouse RAW264.7 cells assessed as TRAP-positive multinucleated cells level at 2.5 uM incubated with compound in presence of RANKL for 4 days by TRAP staining based light microscopic analysis relative to RANKL alone; type: functional; parameters: scale not given: the % may be the effect or the level left
[6] = target: T1, Nuclear factor of activated T-cells, cytoplasmic 1 (Mus musculus) (UniProt O88942); experiment: Inhibition of RANKL-induced NFATc1 translocation in mouse RAW264.7 cells at 1.5 uM incubated with compound in presence of RANKL for 24 hrs by propidium iodide staining based Leica fluorescent microscopic analysis; type: cell-based
T1 sequence (whole entry): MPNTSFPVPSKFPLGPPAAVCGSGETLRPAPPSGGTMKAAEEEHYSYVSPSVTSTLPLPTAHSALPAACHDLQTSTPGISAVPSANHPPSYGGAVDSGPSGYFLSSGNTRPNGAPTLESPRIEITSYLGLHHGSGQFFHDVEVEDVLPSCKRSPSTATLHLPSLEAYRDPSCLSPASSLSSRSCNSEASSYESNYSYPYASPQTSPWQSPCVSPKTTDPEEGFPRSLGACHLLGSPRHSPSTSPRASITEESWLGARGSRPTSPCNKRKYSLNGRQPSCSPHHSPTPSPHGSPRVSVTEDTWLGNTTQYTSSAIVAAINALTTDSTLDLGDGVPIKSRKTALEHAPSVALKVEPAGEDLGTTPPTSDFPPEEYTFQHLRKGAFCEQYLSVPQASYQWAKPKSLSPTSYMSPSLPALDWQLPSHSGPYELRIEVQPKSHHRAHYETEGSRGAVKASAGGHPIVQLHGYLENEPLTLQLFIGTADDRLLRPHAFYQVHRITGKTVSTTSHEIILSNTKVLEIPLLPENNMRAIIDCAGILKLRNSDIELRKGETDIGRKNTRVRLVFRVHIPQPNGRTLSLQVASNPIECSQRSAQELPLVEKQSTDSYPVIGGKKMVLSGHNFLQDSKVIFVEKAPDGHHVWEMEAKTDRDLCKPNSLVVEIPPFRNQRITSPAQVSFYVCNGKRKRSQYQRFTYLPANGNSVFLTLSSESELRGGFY

[7] = target: T1, Nuclear factor of activated T-cells, cytoplasmic 1 (Mus musculus); experiment: Inhibition of RANKL-induced NFATc1 translocation in mouse RAW264.7 cells at 2 uM incubated with compound in presence of RANKL for 24 hrs by propidium iodide staining based Leica fluorescent microscopic analysis; type: cell-based
RAW264.7 [8] = experiment: Inhibition of RANKL-induced osteoclastic bone resorption in mouse RAW264.7 cells assessed as bone resorption area at 1.5 uM incubated with compound in presence of RANKL for 4 days by pit formation assay; type: functional; parameters: scale not given: the % may be the effect or the level left
RAW264.7 [9] = experiment: Inhibition of RANKL-induced osteoclastic bone resorption in mouse RAW264.7 cells assessed as bone resorption area at 2 uM incubated with compound in presence of RANKL for 4 days by pit formation assay; type: functional; parameters: scale not given: the % may be the effect or the level left
RAW264.7 [10] = experiment: Inhibition of RANKL-induced NFATc1 protein expression in mouse RAW264.7 cells at 1.5 and 2 uM incubated with compound in presence of RANKL for 24 hrs by propidium iodide staining based Leica fluorescent microscopic analysis; type: functional, cell-based
RAW264.7 [11] = experiment: Inhibition of RANKL-induced osteoclastic bone resorption in mouse RAW264.7 cells assessed as bone resorption area at 1 uM incubated with compound in presence of RANKL for 4 days by pit formation assay; type: functional; parameters: scale not given: the % may be the effect or the level left

O=C(Nc1ccc(I)cc1F)c1cc(Br)ccc1O
viability at 24 h, 2.5 µM [1]: 99.6% | CC50 at 24 h [2]: 6.4 µM | Activity (RAW264.7 [3]): Toxic | IC50 (RAW264.7 [4]): 1.93 µM | Activity (RAW264.7 [5]): 16%

O=C(Nc1ccc(Br)cc1F)c1cc(F)ccc1O
viability at 24 h, 2.5 µM [1]: 102% | CC50 at 24 h [2]: 7.9 µM | Activity (RAW264.7 [3]): Toxic | IC50 (RAW264.7 [4]): 1.86 µM | Activity (RAW264.7 [5]): 8.7%

O=C(Nc1ccc(I)cc1F)c1cc(Cl)ccc1O
viability at 24 h, 2.5 µM [1]: 108% | CC50 at 24 h [2]: 7.6 µM | Activity (RAW264.7 [3]): Toxic | IC50 (RAW264.7 [4]): 1.84 µM | Activity (RAW264.7 [5]): 2.9%

O=C(Nc1ccc(Br)cc1F)c1cc(Cl)ccc1O
viability at 24 h, 2.5 µM [1]: 106% | CC50 at 24 h [2]: 7.8 µM | Activity (RAW264.7 [3]): Toxic | IC50 (RAW264.7 [4]): 2.14 µM | Activity (RAW264.7 [5]): 23.3%

O=c1oc2ccc(Cl)cc2c(=O)n1-c1ccc(I)cc1F
viability at 24 h, 2.5 µM [1]: 95.5% | CC50 at 24 h [2]: 6.9 µM | Activity (RAW264.7 [3]): Toxic | IC50 (RAW264.7 [4]): 2.05 µM | Activity (RAW264.7 [5]): 19.1%

O=C(Nc1ccc(Cl)cc1F)c1cc(Cl)ccc1O
viability at 24 h, 2.5 µM [1]: 109% | CC50 at 24 h [2]: 8 µM | Activity (RAW264.7 [3]): Toxic | IC50 (RAW264.7 [4]): 2.12 µM | Activity (RAW264.7 [5]): 15.8%

O=C(Nc1ccc(I)cc1F)c1cc(F)ccc1O
viability at 24 h, 2.5 µM [1]: 100% | CC50 at 24 h [2]: 7.4 µM | Activity (RAW264.7 [3]): Toxic | IC50 (RAW264.7 [4]): 1.57 µM | Activity (RAW264.7 [5]): 0.1% | inhibition [6]: Active | inhibition [7]: Active | Activity (RAW264.7 [8]): 63.98% | Activity (RAW264.7 [9]): 23.22% | inhibition (RAW264.7 [10]): Active

O=c1oc2ccc(F)cc2c(=O)n1-c1ccc(I)cc1F
viability at 24 h, 2.5 µM [1]: 102% | CC50 at 24 h [2]: 6 µM | Activity (RAW264.7 [3]): Toxic | IC50 (RAW264.7 [4]): 2.05 µM | Activity (RAW264.7 [5]): 13.9% | inhibition [6]: Active | inhibition [7]: Active | Activity (RAW264.7 [8]): 42.55% | Activity (RAW264.7 [9]): 16.93% | inhibition (RAW264.7 [10]): Active | Activity (RAW264.7 [11]): 73.07%

O=C1c2cc(F)ccc2Oc2cc([N+](=O)[O-])ccc2N1c1ccc(Cl)cc1F
viability at 24 h, 2.5 µM [1]: 91.2% | CC50 at 24 h [2]: > 40 µM | Activity (RAW264.7 [3]): Toxic | Activity (RAW264.7 [5]): 93.1%

O=c1oc2ccc(Br)cc2c(=O)n1-c1ccc(I)cc1F
viability at 24 h, 2.5 µM [1]: 96.8% | CC50 at 24 h [2]: 7.9 µM | Activity (RAW264.7 [3]): Toxic | Activity (RAW264.7 [5]): 39%

O=c1oc2ccc(Cl)cc2c(=O)n1-c1ccc(Br)cc1F
viability at 24 h, 2.5 µM [1]: 114% | CC50 at 24 h [2]: 8.1 µM | Activity (RAW264.7 [3]): Toxic | Activity (RAW264.7 [5]): 45.5%

O=C(Nc1ccc(Br)cc1F)c1cc(I)ccc1O
viability at 24 h, 2.5 µM [1]: 104% | CC50 at 24 h [2]: 8.4 µM | Activity (RAW264.7 [3]): Toxic | Activity (RAW264.7 [5]): 29.9%
